85 compounds from PubChem BioAssay AID1205 (EPA DSSTox, 2008) can be followed below.

Calls of active or inactive are those of the source.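 The calls were made as follows: active = tumour findings in long-term animal cancer tests in more than one sex, species or organ; inactive = no tumour finding and more than one negative test.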

This series can be described thus: DSSTox (CPDBAS) Carcinogenic Potency Database Summary MultiCellCall Results. The settings on record: animal carcinogenicity bioassays, multi-cell call summary. The gist of the method: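 ActivityScore sums 50 for multispecies, 30 for multisex and 20 for multisite positivity. Based on the most positive experiment per sex-species across standardised chronic rodent and other animal cancer tests.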
`ClC(Cl)C(Cl)Cl`: the outcome was “active; multisex active”. In the case of `CC/C(=C(\c1ccccc1)c1ccc(OCCN(C)C)cc1)c1ccccc1` it was “active; multisite active; multisex active; multispecies active”. Regarding `CN(CCO)N=O`, the outcome was “active; multisite active”. With `Cc1cccn2c1nc1ccc(N)nc12`, the outcome was “active; multisite active; multisex active; multispecies active”. Consider `CC1=C(/C=C/C(C)=C/C=C/C(C)=C/C=C/C=C(C)/C=C/C=C(C)/C=C/C2=C(C)CCCC2(C)C)C(C)(C)CCC1`, for which the outcome was “inactive; multisex inactive; multispecies inactive”. The value for `CC(CCl)OC(C)CCl` (stereo not given) was “active; multisite active; multisex active”; that for `ClCC(Cl)Cl` was “active; multisite active; multisex active”. In the case of `NC(=O)c1ccncc1` it was “inactive; multisex inactive”; in that of `CNNCc1ccc(C(=O)NC(C)C)cc1`, “active; multisite active; multisex active; multispecies active”; in that of `Cc1ccc2c(-c3cccc(O)c3)nc(=O)n(C(C)C)c2c1`, “inactive; multisex inactive; multispecies inactive”. The value for `CC(=O)N(O)c1ccc2c(c1)Cc1ccccc1-2` was “active; multisite active; multisex active; multispecies active”; that for `ClCC(Cl)(Cl)Cl` was “active; multisex active”; that for `OCC(CO)(CBr)CBr` was “active; multisite active; multisex active; multispecies active”.

As for `CC(CN1CC(=O)NC(=O)C1)N1CC(=O)NC(=O)C1` (stereo not given), the outcome is “active; multisite active; multispecies active”. In the case of `O=C(O)COc1cc(Cl)c(Cl)cc1Cl` it was “inactive; multisex inactive; multispecies inactive”; in that of `CC1CN(N=O)CC(C)O1` (stereo not given), “active; multisite active; multisex active”; in that of `CCc1cccc2c3c([nH]c12)C(CC)(CC(=O)O)OCC3` (stereo not given), “inactive; multisex inactive; multispecies inactive”. The value for `CNC(=O)Oc1cc(C)c(N(C)C)c(C)c1` was “inactive; multisex inactive; multispecies inactive”. In the case of `O=[As]O`, the outcome is “inactive; multispecies inactive”. On to `CN1C(=O)C(O)N=C(c2ccccc2)c2cc(Cl)ccc21` (stereo not given), for which the outcome is “inactive; multisex inactive”. In the case of `Nc1ccc(N=Nc2ccccc2)c(N)n1` it was “active; multisite active; multisex active; multispecies active”; in that of `O=S1OCC2C(CO1)C1(Cl)C(Cl)=C(Cl)C2(Cl)C1(Cl)Cl` (stereo not given), “inactive; multisex inactive; multispecies inactive”; in that of `ClCC(Cl)CCl`, “active; multisite active; multisex active; multispecies active”. Consider `N[C@@H](Cc1cnc[nH]1)C(=O)O`, for which the outcome is “inactive; multisex inactive”. Regarding `CCCCCCCCCCCCN(C)N=O`, the outcome is “active; multisite active; multisex active”. The value for `C1CCNCC1` was “inactive; multisex inactive”.

Turning to `NC(=O)NNc1ccccc1`, the outcome is “active; multisex active”.

In the case of `Cc1ccc(N=Nc2c(O)ccc3ccccc23)c([N+](=O)[O-])c1`, the outcome was “active; multisite active; multisex active; multispecies active”. The value for `O=[N+]([O-])c1ccc2ccc3cccc4ccc1c2c34` was “active; multisite active”; that for `C=CC(N)=O` was “active; multisite active; multisex active”.

As for `Nc1ccc2ccccc2c1`, the outcome was “active; multisite active; multisex active; multispecies active”. In the case of `CC(Oc1cc(Cl)ccc1Cl)C(=O)O` (stereo not given), the outcome is “inactive; multisex inactive”. In the case of `CN=[N+](C)[O-]` it was “active; multisite active”; in that of `Nc1ccc(NCCO)c([N+](=O)[O-])c1`, “inactive; multisex inactive; multispecies inactive”. The value for `CN(C)CCOC(C)(c1ccccc1)c1ccccn1` (stereo not given) was “active; multisite active; multisex active; multispecies active”; that for `Cc1ccc(N)cc1Cl` was “inactive; multisex inactive; multispecies inactive”.

As to `ClCc1ccccn1`, the outcome is “inactive; multisex inactive; multispecies inactive”. The value for `CCOC(N)=O` was “active; multisite active; multisex active; multispecies active”; that for `CC(=O)Oc1ccccc1C(=O)O` was “inactive; multisex inactive; multispecies inactive”. In the case of `O=CNc1nc(-c2ccc([N+](=O)[O-])o2)cs1` it was “active; multisite active; multisex active; multispecies active”; in that of `COc1ccc(C(c2ccc(OC)cc2)C(Cl)(Cl)Cl)cc1`, “inactive; multisex inactive; multispecies inactive”; in that of `C=CC#N`, “active; multisite active; multisex active”.

On to `c1ccc2n[nH]nc2c1`, for which the outcome was “inactive; multisex inactive; multispecies inactive”.

Consider `Cl`, for which the outcome was “inactive; multisex inactive”. The value for `[C-]1=CC=CC1.[C-]1=CC=CC1.[Cl-].[Cl-].[Ti+4]` was “inactive; multisex inactive”. The value for `O=S(=O)(c1ccc(Cl)cc1)c1ccc(Cl)cc1` was “inactive; multisex inactive; multispecies inactive”; that for `C[C@@H]1C/C=C/C=C/C=C/C=C/[C@H](O[C@@H]2O[C@H](C)[C@@H](O)[C@H](N)[C@@H]2O)C[C@@H]2O[C@](O)(C[C@@H](O)C[C@H]3O[C@@H]3/C=C/C(=O)O1)C[C@H](O)[C@H]2C(=O)O` was “inactive; multisex inactive”. In the case of `NC(=O)/C(=C\c1ccc([N+](=O)[O-])o1)c1ccco1` it was “active; multisite active; multisex active; multispecies active”. Regarding `CC(=O)OC/C=C(\C)CCC=C(C)C`, the outcome was “inactive; multisex inactive; multispecies inactive”. Regarding `Cc1nnc2n1-c1sc(CCc3ccc(CC(C)C)cc3)cc1C(c1ccccc1Cl)=NC2C` (stereo not given), the outcome was “inactive; multisex inactive”.

Turning to `CC(C)(C)c1cc(CO)cc(C(C)(C)C)c1O`, the outcome is “inactive; multisex inactive”. The value for `Cc1cn([C@H]2C[C@H](N=[N+]=[N-])[C@@H](CO)O2)c(=O)[nH]c1=O` was “active; multispecies active”; that for `FCCl` was “active; multisex active”; that for `O=C1CN(/N=C/c2ccc([N+](=O)[O-])o2)C(=O)N1` was “active; multisite active; multisex active; multispecies active”.

As to `Nc1nc(N)c2nc(-c3ccccc3)c(N)nc2n1`, the outcome is “active; multisex active”. Regarding `COc1c(Cl)c(Cl)c([N+](=O)[O-])c(Cl)c1Cl`, the outcome is “inactive; multisex inactive; multispecies inactive”. The value for `ClCC(Br)CBr` (stereo not given) was “active; multisite active; multisex active; multispecies active”; that for `CC(=O)OC[C@H]1O[C@H](O[C@]2(COC(C)=O)O[C@H](COC(=O)C(C)C)[C@@H](OC(=O)C(C)C)[C@@H]2OC(=O)C(C)C)[C@H](OC(=O)C(C)C)[C@@H](OC(=O)C(C)C)[C@@H]1OC(=O)C(C)C` was “inactive; multisex inactive; multispecies inactive”. The value for `N#CS` was “inactive; multisex inactive”; that for `CN(N=O)C(=O)c1ccccc1` was “active; multisite active; multisex active”. The value for `Cc1cc(C(C)(C)C)c(O)c(C(C)(C)C)c1` was “active; multisite active”; that for `CCN(CC)N=O` was “active; multisite active; multisex active; multispecies active”; that for `COc1ccc(C(=O)/C(Br)=C\C(=O)O)cc1` was “active; multisite active; multisex active”.

For `Nc1cc(S(=O)(=O)O)cc2cc(S(=O)(=O)O)c(N=Nc3ccc(-c4ccc(N=Nc5c(S(=O)(=O)O)cc6cc(S(=O)(=O)O)cc(N)c6c5O)cc4)cc3)c(O)c12`, the outcome was “active; multisex active”. The value for `COc1ccc(C(Cl)=C(c2ccc(OC)cc2)c2ccc(OC)cc2)cc1` was “inactive; multisex inactive”.

As for `Cc1ccc(N=C=O)cc1N=C=O`, the outcome is “active; multisite active; multisex active; multispecies active”. Take `CC1=C(/C=C/C(C)=C/C=C/C(C)=C/C(=O)O)C(C)(C)CCC1`: the outcome was “inactive; multisex inactive; multispecies inactive”. In the case of `COc1cc2c(c3oc4cccc(O)c4c(=O)c13)C1C=COC1O2` (stereo not given) it was “active; multisite active; multisex active; multispecies active”; in that of `c1ccc(C2CO2)cc1` (stereo not given), “active; multisex active; multispecies active”. In the case of `CC(Cl)(Cl)Cl` it was “inactive; multisex inactive; multispecies inactive”; in that of `Oc1c(Cl)cc(Cl)c(Cl)c1Cc1c(O)c(Cl)cc(Cl)c1Cl`, “inactive; multisex inactive; multispecies inactive”. The value for `O=C1c2ccccc2C(=O)c2c(O)cccc21` was “active; multisite active”; that for `O=C1C(c2[nH]c3ccc(S(=O)(=O)O)cc3c2O)=Nc2ccc(S(=O)(=O)O)cc21` was “inactive; multisex inactive; multispecies inactive”.

Regarding `FC(Cl)(Cl)Cl`, the outcome is “inactive; multisex inactive; multispecies inactive”. In the case of `C=CC(OCC)OCC` it was “inactive; multisex inactive”.

`O[C@H]([C@H](O)[C@@H](O)CBr)[C@H](O)CBr`: the outcome was “active; multisite active; multisex active; multispecies active”. In the case of `C=C(Cl)CSC(=S)N(CC)CC` it was “active; multisite active; multisex active; multispecies active”. The value for `COCCl` was “active; multispecies active”. The value for `O=c1cc(CO)occ1O` was “active; multisex active”. On to `CCC(O)OC(O)CC` (stereo not given), for which the outcome was “inactive; multisex inactive; multispecies inactive”.

As for `CN(C)C(=O)NC1CC2CC1C1CCCC21` (stereo not given), the outcome is “inactive; multisex inactive”. The value for `S=C=Nc1ccccc1` was “inactive; multisex inactive”; that for `CCN(CC)C(=S)SSC(=S)N(CC)CC` was “inactive; multisex inactive; multispecies inactive”. The value for `NNC(N)=S` was “inactive; multisex inactive; multispecies inactive”; that for `CCN(Cc1cccc(S(=O)(=O)[O-])c1)c1ccc(C(=C2C=CC(=[N+](C)C)C=C2)c2ccc(N(CC)Cc3cccc(S(=O)(=O)O)c3)cc2)cc1` was “active; multisite active”.
